The results in this text go back to US20100285963A1, “SUBSTITUTED FLUOROALKOXYPHENYLSULFONYLUREAS” (priority 2001, published 2010).

Molecules are shown by their SMILES.

Type in all cases: in vivo
Data set [1] has as its system crop plants, such as, for example, wheat and soya. Kind of data set: Pre-emergence test (greenhouse), tolerance by crop plants. The settings on record: after three weeks. The method, then:
(§1) Solvent: 5 parts by weight of acetone
(§2) Emulsifier: 1 part by weight of alkylaryl polyglycol ether
(§3) To produce a suitable preparation of active compound, 1 part by weight of active compound is mixed with the stated amount of solvent, the stated amount of emulsifier is added and the concentrate is diluted with water to the desired concentration.
(§4) Seeds of the test plants are sown in normal soil. After 24 hours, the soil is sprayed with the preparation of active compounds such that the particular amount of active compound desired is applied per unit area. The concentration of active compound in the spray liquor is chosen such that the particular amount of active compound desired is applied in 1000 liters of water per hectare.
(§5) After three weeks, the degree of damage to the plants is rated in % damage in comparison to the development of the untreated control. The figures denote: • 0%=no effect (like untreated control) • 100%=total destruction

Data set [2] relates to weeds. The data set is described as follows: Post-emergence test (greenhouse), damage to weeds. Particulars: for activity against weeds: test plants of 5-15 cm sprayed, rated after three weeks as % damage vs untreated control. The method, then:
as §1, §2
(§6) To product a suitable preparation of active compound, 1 part by weight of active compound is mixed with the stated amount of solvent, the stated amount of emulsifier is added and the concentrate is diluted with water to the desired concentration.
(§7) Test plants of a height of 5-15 cm are sprayed with the preparation of active compound such that the particular amounts of active compound desired are applied per unit area. The concentration of the spray liquor is chosen such that the particular amounts of active compound desired are applied in 10001 of water/ha.
(§8) After three weeks, the degree of damage to the plants is rated in % damage in comparison to the development of the untreated control.
(§9) The figures denote: • 0%=no effect (like untreated control) • 100%=total destruction

Data set [3] concerns weeds. The data set is described as follows: Pre-emergence test (greenhouse), damage to weeds. Particulars: for activity against weeds: soil sprayed 24 hours after sowing, rated after three weeks as % damage vs untreated control. The method, then:
as §1, §2, §3, §4, §5

Data set [4] relates to crop plants, such as, for example, corn, wheat and sugar beet. The data set is described as follows: Post-emergence test (greenhouse), tolerance by crop plants. Particulars: after three weeks. As for the experimental part: as §1, §2, §6, §7, §8, §9
Data set [5] deals with apple mildew pathogen Podosphaera leucotricha. The data set is described as follows: Podosphaera test (apple)/protective. Particulars: protective; for efficacy against mildew of apples (Podosphaera leucotricha): application rate of 100 g/ha, evaluation 10 days after the inoculation; for % efficacy: apple, application rate 100 g/ha, 10 days after inoculation. The method, then:
Solvent: 49 parts by weight of acetone
as §2
To produce a suitable preparation of active compound, 1 part by weight of active compound is mixed with the stated amounts of solvent and emulsifier, and the concentrate is diluted with water to the desired concentration.
To test for protective activity, young plants are sprayed with the preparation of active compound at the stated application rate. After the spray coating has dried on, the plants are inoculated with an aqueous spore suspension of the apple mildew pathogen Podosphaera leucotricha. The plants are then placed in a greenhouse at about 23° C. and a relative atmospheric humidity of about 70%.
Evaluation is carried out 10 days after the inoculation. 0% means an efficacy which corresponds to that of the control, whereas an efficacy of 100% means that no infection is observed.

The mark [6] stands for this setting: 30 g of a.i./ha, after three weeks, Table B7.
Setting [7] is: 15 g of a.i./ha, after three weeks, Table A2.
The mark [8] stands for this setting: 30 g of a.i./ha, after three weeks, Table B2.
Setting [9] is: 30 g of a.i./ha, after three weeks.
[10] abbreviates: 8 g of a.i./ha, after three weeks, Table B6.
[11] abbreviates: 30 g of a.i./ha, after three weeks, Table B5.
The mark [12] stands for this setting: 60 g of a.i./ha, after three weeks, Table A6.
Where [13] appears, read: 8 g of a.i./ha, after three weeks, Table B3.
The mark [14] stands for this setting: 15 g of a.i./ha, after three weeks.

For the compound `COc1cc(OC)nc(NC(=O)NS(=O)(=O)c2c(OCCF)cccc2C(F)(F)F)n1` [(4)], in data set [1] (15 g of a.i./ha), the “% damage Soya” value is reported as 0% and the “% damage Wheat” value is recorded as 0%. Also, in data set [2] (setting [6]), the “% damage Abutilon” value came out at 95%, the “% damage Alopecurus” value is listed as 90%, the “% damage Amaranthus” value is reported as 100% and the “% damage Ipomoea” value amounted to 95%. Moreover, in data set [2] (setting [6]), the “% damage Matricaria” value came out at 100% and the “% damage Viola” value is 95%. In data set [3] (setting [7]), the “% damage Alopecurus” value was determined as 80%, the “% damage Chenopodium” value is recorded as 100%, the “% damage Matricaria” value stood at 100% and the “% damage Sorghum” value came to 80%. Further, the “% damage Viola” value in data set [3] (setting [7]) was 100%.

For the compound `CCCc1cccc(OCCCF)c1S(=O)(=O)NC(=O)Nc1nc(C)nc(OC)n1` [(7)], in data set [4] (30 g of a.i./ha, Table B2), the “% damage Wheat” value turned out to be 0%. For the same compound, the “% damage Wheat” value in data set [1] (30 g of a.i./ha) was 0%. In data set [2] (setting [8]), the “% damage Abutilon” value is recorded as 100%, the “% damage Alopecurus” value was determined as 90%, the “% damage Amaranthus” value amounted to 100% and the “% damage Datura” value is reported as 100%. Besides, the “% damage Solanum” value in data set [2] (setting [8]) stood at 100%. In data set [3] (setting [9]), the “% damage Chenopodium” value was determined as 90%, the “% damage Echinochloa” value is recorded as 90%, the “% damage Galium” value amounted to 90% and the “% damage Stellaria” value is recorded as 100%. In addition, the “% damage Viola” value in data set [3] (setting [9]) stood at 100%.

With `CCCc1cccc(OCCCF)c1S(=O)(=O)NC(=O)Nc1nc(OC)nc(OC)n1` [(8)], in data set [4] (8 g of a.i./ha, Table B6), the “% damage Maize” value stood at 10% and the “% damage Wheat” value is listed as 0%. For the same compound, the “% damage Wheat” value in data set [1] (30 g of a.i./ha) is listed as 0%. In data set [2] (setting [10]), the “% damage Datura” value is reported as 90%, the “% damage Ipomoea” value stood at 100%, the “% damage Matricaria” value is given as 95% and the “% damage Solanum” value turned out to be 100%. Besides, the “% damage Stellaria” value in data set [2] (setting [10]) came to 95%. In addition, in data set [3] (setting [9]), the “% damage Chenopodium” value amounted to 90%, the “% damage Galium” value stood at 90%, the “% damage Stellaria” value amounted to 100% and the “% damage Viola” value was determined as 100%.

With `COc1cc(Cl)nc(NC(=O)NS(=O)(=O)c2c(C)cccc2OCCCF)n1` [(14)], in data set [4] (30 g of a.i./ha, Table B5), the “% damage Sugar beet” value worked out at 0% and the “% damage Wheat” value is given as 0%. Further, in data set [2] (setting [11]), the “% damage Amaranthus” value worked out at 100%, the “% damage Ipomoea” value was 95% and the “% damage Matricaria” value was 90%. Also, in data set [3] (setting [12]), the “% damage Abutilon” value was found to be 95%, the “% damage Alopecurus” value is reported as 100%, the “% damage Amaranthus” value came to 95% and the “% damage Echinochloa” value was 100%. In data set [3] (setting [12]), the “% damage Galium” value is given as 90% and the “% damage Sinapis” value amounted to 95%.

For `CCc1cccc(OCCCF)c1S(=O)(=O)NC(=O)Nc1nc(C)nc(OC)n1` [(17)], in data set [4] (8 g of a.i./ha, Table B3), the “% damage Wheat” value was determined as 10%. In data set [2] (setting [13]), the “% damage Abutilon” value worked out at 100%, the “% damage Ipomoea” value was 100%, the “% damage Lolium” value came out at 90% and the “% damage Matricaria” value came out at 100%. In data set [2] (setting [13]), the “% damage Solanum” value amounted to 100% and the “% damage Stellaria” value was determined as 100%. In addition, in data set [3] (setting [12]), the “% damage Abutilon” value was determined as 95%, the “% damage Alopecurus” value was determined as 95%, the “% damage Amaranthus” value came out at 95% and the “% damage Echinochloa” value amounted to 95%. In data set [3] (setting [12]), the “% damage Galium” value was determined as 95% and the “% damage Sinapis” value amounted to 90%.

Take `CCc1cccc(OCCCF)c1S(=O)(=O)NC(=O)Nc1nc(Cl)cc(OC)n1` [(18)]: the “% damage Wheat” value in data set [4] (15 g of a.i./ha) was 15%. In addition, in data set [2] (setting [14]), the “% damage Abutilon” value is 90%, the “% damage Amaranthus” value is reported as 95%, the “% damage Matricaria” value is recorded as 95% and the “% damage Xanthium” value was found to be 90%.

Regarding `COc1cc(OC)nc(NC(=O)NS(=O)(=O)c2c(OCCF)cccc2C(F)(F)F)n1` [Example 4], the activity against weeds entry in data set [2] and in data set [3] was “very strong activity” each time.

As for `COc1nc(C)nc(NC(=O)[N-]S(=O)(=O)c2c(OCCF)cccc2C(F)(F)F)n1.[Na+]` [Example 5], the activity against weeds result in data set [2] and in data set [3] was “very strong activity” in each case.

Turning to `CCc1cccc(OCCCF)c1S(=O)(=O)NC(=O)Nc1nc(C)cc(C)n1` [Example 6], the activity against weeds entry in data set [2] and in data set [3] was “very strong activity” throughout.

For `CCCc1cccc(OCCCF)c1S(=O)(=O)NC(=O)Nc1nc(C)nc(OC)n1` [Example 7], the activity against weeds entry in data set [2] and in data set [3] was “very strong activity” each time.

On to `CCCc1cccc(OCCCF)c1S(=O)(=O)NC(=O)Nc1nc(OC)nc(OC)n1` [Example 8], for which the activity against weeds entry in data set [2] and in data set [3] was “very strong activity” in each case.

For the compound `COc1cc(Cl)nc(NC(=O)NS(=O)(=O)c2c(C)cccc2OCCCF)n1` [Example 14], the activity against weeds result in data set [2] and in data set [3] was “very strong activity” throughout.

`COc1nc(NC(=O)NS(=O)(=O)c2c(C)cccc2OCCCF)nc(OC)n1` [Example 15]: the activity against weeds entry in data set [2] and in data set [3] was “very strong activity” each time.

Regarding `CCc1cccc(OCCCF)c1S(=O)(=O)NC(=O)Nc1nc(C)nc(OC)n1` [Example 17], the activity against weeds result in data set [2] and in data set [3] was “very strong activity” throughout.

Consider `COc1cc(Cl)nc(NC(=O)NS(=O)(=O)c2c(OCCF)cccc2C(F)(F)F)n1` [Example 20], for which the activity against weeds entry in data set [2] and in data set [3] was “very strong activity” in each case.

Turning to `COc1nc(NC(=O)NS(=O)(=O)c2c(OCCF)cccc2C(F)(F)F)nc(OC)n1` [Example 21], the activity against weeds entry in data set [2] and in data set [3] was “very strong activity” in each case.

For the compound `COc1cc(OC)nc(NC(=O)NS(=O)(=O)c2c(C)cccc2OCCF)n1` [Example 24], the “efficacy against mildew of apples (Podosphaera leucotricha)” value (shortened to “efficacy against mildew of apples”) in data set [5] was found to be 100%. In addition, the activity against weeds result in data set [2] and in data set [3] was “very strong activity” each time.

On to `CCCc1cccc(OCCCF)c1S(=O)(=O)NC(=O)Nc1nc(OC)cc(OC)n1` [Example 25], for which the “efficacy against mildew of apples” value in data set [5] stood at 100%. In addition, the activity against weeds result in data set [2] and in data set [3] was “very strong activity” throughout.

For the compound `CCCc1cccc(OCCF)c1S(=O)(=O)NC(=O)Nc1nc(OC)cc(OC)n1` [Example 26], the “efficacy against mildew of apples” value in data set [5] is 100%. In addition, the activity against weeds result in data set [2] and in data set [3] was “very strong activity” throughout.

Regarding `COc1cc(OC)nc(NC(=O)NS(=O)(=O)c2c(C)cccc2OCCF)n1` [drawing 17], the “% efficacy” value in data set [5] was determined as 100%.

In the case of `COc1nc(C)nc(NC(=O)NS(=O)(=O)c2c(C)cccc2OCCF)n1` [drawing 18], the “% efficacy” value in data set [5] is on record as 100%.

`CCCc1cccc(OCCCF)c1S(=O)(=O)NC(=O)Nc1nc(OC)cc(OC)n1` [drawing 19]: the “% efficacy” value in data set [5] is listed as 100%.

On to `CCCc1cccc(OCCF)c1S(=O)(=O)NC(=O)Nc1nc(OC)cc(OC)n1` [drawing 20], for which the “% efficacy” value in data set [5] was determined as 100%.
